# According to the supplement of paper PMC10307832:
# Tests used:
# Test in all cases: relative viability (nuclei count vs DMSO), 5 days (fraction); higher = more cells survive
# [1] = compound: Cc1cnc(CNC(=O)c2c(=O)c3ccc(N4CCCN(C)CC4)nc3n3c2sc2ccccc23)cn1 [CX-5461] + CC(=O)Nc1cccc(-n2c(=O)n(C3CC3)c(=O)c3c(Nc4ccc(I)cc4F)n(C)c(=O)c(C)c32)c1 [Trametinib] (partner 0.02 µM)
# In short: (§1)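 Lung cancer cell lines were pin-tool dosed in 1536-well plates on the day after seeding, with either a lone drug or a fixed anchor-drug dose plus five library-drug doses (not always all listed) in √10 steps. Nuclei were counted on 4× images after 5 days. Relative viability is the ratio of treated-well to vehicle-well nuclei counts, with each value a median of duplicate plates.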
# [2] = compound: Cc1cnc(CNC(=O)c2c(=O)c3ccc(N4CCCN(C)CC4)nc3n3c2sc2ccccc23)cn1 [CX-5461] + CS(=O)(=O)N1CCN(Cc2cc3nc(-c4cccc5[nH]ncc45)nc(N4CCOCC4)c3s2)CC1 [Pictilisib] (partner 1 µM)
# In short: as §1
# [3] = compound: O=C(Nc1cc(C(F)(F)F)cc(C(F)(F)F)c1)c1cc(Cl)ccc1O [IMD-0354] + N=C(N)NC(=N)NCCc1ccccc1 [Phenformin] (partner 250 µM)
# In short: as §1
# [4] = compound: Cc1cnc(CNC(=O)c2c(=O)c3ccc(N4CCCN(C)CC4)nc3n3c2sc2ccccc23)cn1 [CX-5461] + NC(=O)Nc1cc(-c2cccc(F)c2)sc1C(=O)N[C@H]1CCCNC1 [AZD7762] (partner 0.2 µM)
# In short: as §1
Cell Line,relative viability ([1]; first compound 0.01 µM),relative viability ([1]; first compound 0.03162 µM),relative viability ([1]; first compound 0.1 µM),relative viability ([1]; first compound 0.3162 µM),relative viability ([1]; first compound 1 µM),relative viability ([2]; first compound 0.01 µM),relative viability ([2]; first compound 0.03162 µM),relative viability ([2]; first compound 0.1 µM),relative viability ([2]; first compound 0.3162 µM),relative viability ([2]; first compound 1 µM),relative viability ([3]; first compound 0.04 µM),relative viability ([3]; first compound 0.1265 µM),relative viability ([3]; first compound 0.4 µM),relative viability ([3]; first compound 1.265 µM),relative viability ([3]; first compound 4 µM),relative viability ([4]; first compound 0.01 µM),relative viability ([4]; first compound 0.03162 µM),relative viability ([4]; first compound 0.1 µM),relative viability ([4]; first compound 1 µM),relative viability ([4]; first compound 0.3162 µM)
NCI-H520,0.754,0.642,0.734,0.327,0.352,0.218,0.299,0.285,0.305,0.298,0.738,0.51,0.299,0.168,0.194,–,–,–,–,–
SW 1573,0.496,0.513,0.126,0.566,0.16,0.56,0.471,0.461,0.59,0.452,0.397,0.265,0.18,0.0898,0.103,–,–,–,–,–
NCI-H522,0.734,0.86,0.815,–,0.751,–,–,–,–,–,0.614,0.666,0.464,0.61,0.383,1.09,0.98,0.713,0.79,–
NCI-H1299,–,–,–,–,–,0.842,–,0.768,0.799,0.545,–,–,–,–,–,–,–,–,–,–
NCI-H1650,0.564,0.447,0.532,0.678,0.207,0.577,0.593,–,0.206,0.226,0.46,0.396,0.304,0.174,0.209,–,–,–,–,–
NCI-H2009,0.341,0.271,0.286,0.301,0.243,0.87,0.862,0.635,0.519,0.815,0.502,0.324,0.228,0.137,0.15,–,–,–,–,–
NCI-H1648,0.47,0.514,0.488,0.534,0.509,–,–,–,–,–,–,–,–,–,–,0.647,0.785,0.655,0.592,0.771
NCI-H2342,0.787,0.81,0.832,0.871,0.918,–,–,–,–,–,0.632,0.593,0.455,0.4,0.383,0.444,0.486,0.484,0.469,0.522
SW 900,0.664,0.84,–,0.548,0.829,–,–,–,–,–,0.661,0.48,0.302,0.185,0.202,0.657,0.627,–,0.311,0.544
A549,–,–,–,–,–,0.555,0.525,–,0.472,0.0627,0.23,0.106,0.0873,0.03,0.0515,–,–,–,–,–
NCI-H661,0.647,0.621,0.544,0.432,0.376,0.372,0.405,0.377,0.374,0.382,0.268,0.249,0.224,0.198,0.232,–,–,–,–,–
NCI-H1563,–,–,–,–,–,0.648,0.662,0.637,0.624,0.528,0.688,0.622,0.53,0.329,0.37,–,–,–,–,–
ABC-1,–,–,–,–,–,0.792,1,–,0.289,0.573,0.227,0.207,0.224,0.197,0.194,0.753,0.777,0.845,0.608,–
